Laboratory results: paper PMC8580996, “2-Oxoglutarate derivatives can selectively enhance or inhibit the activity of human oxygenases” (Nature Communications, 2021)
Values joined by “and” are separate entries in the source; they are usually repeats but may differ in a detail not shown here. Equal entries are not always repeated.

Biological target: FIH (Homo sapiens, UniProt Q9NWT6)
Assay: Mechanism of FIH inhibition: 2OG kinetics at variable concentrations of 18 (Ki, Cornish-Bowden plot)
Type: biochemical
Design: FIH reaction rate at variable 2OG and compound 18 concentrations (Figure 5a): unit not given here
Experimental: Supplementary Figure 28. Determination of the FIH Kapp for 4-(3-phenylprop-1-yl)-2OG (18) (continues on […]
the following page). […]
(LAA), and 20 μM ammonium iron(II) sulfate hexahydrate (FAS, (NH4)2Fe(SO4)2·6H2O) in buffer (50 mM Tris, 50 mM NaCl, pH 7.5, 20° C). Measurement times were normalized to the first sample injection analyzed after the […]
are shown as the mean of independent triplicates (n = 3; mean ± standard deviation, SD). […]
2OG concentrations, determined in the presence of 0.5 μM 18; (e) hydroxylation rates used for the kinetic analysis; […]

Sequence of FIH (Q9NWT6 whole entry): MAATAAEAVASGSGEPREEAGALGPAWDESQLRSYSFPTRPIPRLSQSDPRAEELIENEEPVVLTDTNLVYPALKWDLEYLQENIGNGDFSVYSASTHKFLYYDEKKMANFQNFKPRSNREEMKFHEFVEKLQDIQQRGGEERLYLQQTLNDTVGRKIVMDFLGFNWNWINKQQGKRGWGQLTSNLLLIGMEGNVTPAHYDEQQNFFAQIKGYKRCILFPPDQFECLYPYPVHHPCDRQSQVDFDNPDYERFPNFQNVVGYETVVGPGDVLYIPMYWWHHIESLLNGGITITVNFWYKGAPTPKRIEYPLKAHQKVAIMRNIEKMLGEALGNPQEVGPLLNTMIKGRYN

SMILES: O=C(O)C(=O)CC(CCCc1ccccc1)C(=O)O (centres unmarked) [compound 18, 4-(3-phenylpropyl)-2OG]
- 2OG concentration / rate, Cornish-Bowden plot (Figure 5b) (0.5 μM 18, 2 μM 2OG): 738.825 and 619.579 and 831.947
- 2OG concentration / rate, Cornish-Bowden plot (Figure 5b) (0.5 μM 18, 4 μM 2OG): 1161.44 and 956.709 and 1175.78
- 2OG concentration / rate, Cornish-Bowden plot (Figure 5b) (0.5 μM 18, 8 μM 2OG): 1892.15 and 1526.72 and 1620.09
- 2OG concentration / rate, Cornish-Bowden plot (Figure 5b) (0.5 μM 18, 16 μM 2OG): 2827.85 and 3158.93 and 3165.81
- 2OG concentration / rate, Cornish-Bowden plot (Figure 5b) (0.5 μM 18, 32 μM 2OG): 6761.04 and 5757.47 and 6079.03
- 2OG concentration / rate, Cornish-Bowden plot (Figure 5b) (0.5 μM 18, 64 μM 2OG): 11329.4 and 12181.2 and 11500.5
- FIH reaction rate at variable 2OG and compound 18 concentrations (Figure 5a) (0.5 μM compound 18, 0 μM 2OG): 0
- FIH reaction rate at variable 2OG and compound 18 concentrations (Figure 5a) (0.5 μM compound 18, 0.5 μM 2OG): 0.000919 and 0.000982 and 0.001057
- FIH reaction rate at variable 2OG and compound 18 concentrations (Figure 5a) (0.5 μM compound 18, 1 μM 2OG): 0.001502 and 0.002201 and 0.001615
- FIH reaction rate at variable 2OG and compound 18 concentrations (Figure 5a) (0.5 μM compound 18, 2 μM 2OG): 0.002707 and 0.003228 and 0.002404
- FIH reaction rate at variable 2OG and compound 18 concentrations (Figure 5a) (0.5 μM compound 18, 4 μM 2OG): 0.003444 and 0.004181 and 0.003402
- FIH reaction rate at variable 2OG and compound 18 concentrations (Figure 5a) (0.5 μM compound 18, 8 μM 2OG): 0.004228 and 0.00524 and 0.004938
- FIH reaction rate at variable 2OG and compound 18 concentrations (Figure 5a) (0.5 μM compound 18, 16 μM 2OG): 0.005658 and 0.005065 and 0.005054
- FIH reaction rate at variable 2OG and compound 18 concentrations (Figure 5a) (0.5 μM compound 18, 32 μM 2OG): 0.004733 and 0.005558 and 0.005264
- FIH reaction rate at variable 2OG and compound 18 concentrations (Figure 5a) (0.5 μM compound 18, 64 μM 2OG): 0.005649 and 0.005254 and 0.005565
- 2OG concentration / rate, Cornish-Bowden plot (Figure 5b) (1 μM 18, 2 μM 2OG): 1398.6 and 985.222 and 1090.51
- 2OG concentration / rate, Cornish-Bowden plot (Figure 5b) (1 μM 18, 4 μM 2OG): 1161.44 and 1382.65 and 1432.15
- 2OG concentration / rate, Cornish-Bowden plot (Figure 5b) (1 μM 18, 8 μM 2OG): 2089.32 and 1965.12 and 2137.89
- 2OG concentration / rate, Cornish-Bowden plot (Figure 5b) (1 μM 18, 16 μM 2OG): 3148.99 and 3185.35 and 3256
- 2OG concentration / rate, Cornish-Bowden plot (Figure 5b) (1 μM 18, 32 μM 2OG): 5969.04 and 5882.35
- 2OG concentration / rate, Cornish-Bowden plot (Figure 5b) (1 μM 18, 64 μM 2OG): 12176.6 and 10488.4
- FIH reaction rate at variable 2OG and compound 18 concentrations (Figure 5a) (1.0 μM compound 18, 0 μM 2OG): 0
- FIH reaction rate at variable 2OG and compound 18 concentrations (Figure 5a) (1.0 μM compound 18, 0.5 μM 2OG): 0.000462 and 0.000537 and 0.000636
- FIH reaction rate at variable 2OG and compound 18 concentrations (Figure 5a) (1.0 μM compound 18, 1 μM 2OG): 0.000809 and 0.001158 and 0.001225
- FIH reaction rate at variable 2OG and compound 18 concentrations (Figure 5a) (1.0 μM compound 18, 2 μM 2OG): 0.00143 and 0.00203 and 0.001834
- FIH reaction rate at variable 2OG and compound 18 concentrations (Figure 5a) (1.0 μM compound 18, 4 μM 2OG): 0.003444 and 0.002893 and 0.002793
- FIH reaction rate at variable 2OG and compound 18 concentrations (Figure 5a) (1.0 μM compound 18, 8 μM 2OG): 0.003829 and 0.004071 and 0.003742
- FIH reaction rate at variable 2OG and compound 18 concentrations (Figure 5a) (1.0 μM compound 18, 16 μM 2OG): 0.005081 and 0.005023 and 0.004914
- FIH reaction rate at variable 2OG and compound 18 concentrations (Figure 5a) (1.0 μM compound 18, 32 μM 2OG): 0.005361 and 0.00544
- FIH reaction rate at variable 2OG and compound 18 concentrations (Figure 5a) (1.0 μM compound 18, 64 μM 2OG): 0.005256 and 0.006102
- 2OG concentration / rate, Cornish-Bowden plot (Figure 5b) (2 μM 18, 2 μM 2OG): 2902.76 and 2272.73 and 1572.33
- 2OG concentration / rate, Cornish-Bowden plot (Figure 5b) (2 μM 18, 4 μM 2OG): 2503.13 and 2493.77 and 2115.28
- 2OG concentration / rate, Cornish-Bowden plot (Figure 5b) (2 μM 18, 8 μM 2OG): 3164.56 and 2950.94 and 2606.71
- 2OG concentration / rate, Cornish-Bowden plot (Figure 5b) (2 μM 18, 16 μM 2OG): 5053.7 and 4190.68 and 4087.89
- 2OG concentration / rate, Cornish-Bowden plot (Figure 5b) (2 μM 18, 32 μM 2OG): 7228.37 and 7157.24 and 7025.25
- 2OG concentration / rate, Cornish-Bowden plot (Figure 5b) (2 μM 18, 64 μM 2OG): 11617.4 and 13556.5
- FIH reaction rate at variable 2OG and compound 18 concentrations (Figure 5a) (2.0 μM compound 18, 0 μM 2OG): 0
- FIH reaction rate at variable 2OG and compound 18 concentrations (Figure 5a) (2.0 μM compound 18, 1 μM 2OG): 0.000474 and 0.000421 and 0.000679
- FIH reaction rate at variable 2OG and compound 18 concentrations (Figure 5a) (2.0 μM compound 18, 2 μM 2OG): 0.000689 and 0.00088 and 0.001272
- FIH reaction rate at variable 2OG and compound 18 concentrations (Figure 5a) (2.0 μM compound 18, 4 μM 2OG): 0.001598 and 0.001604 and 0.001891
- FIH reaction rate at variable 2OG and compound 18 concentrations (Figure 5a) (2.0 μM compound 18, 8 μM 2OG): 0.002528 and 0.002711 and 0.003069
- FIH reaction rate at variable 2OG and compound 18 concentrations (Figure 5a) (2.0 μM compound 18, 16 μM 2OG): 0.003166 and 0.003818 and 0.003914
- FIH reaction rate at variable 2OG and compound 18 concentrations (Figure 5a) (2.0 μM compound 18, 32 μM 2OG): 0.004427 and 0.004471 and 0.004555
- FIH reaction rate at variable 2OG and compound 18 concentrations (Figure 5a) (2.0 μM compound 18, 64 μM 2OG): 0.005509 and 0.004721
- 2OG concentration / rate, Cornish-Bowden plot (Figure 5b) (4 μM 18, 2 μM 2OG): 4319.65 and 4926.11 and 3120.12
- 2OG concentration / rate, Cornish-Bowden plot (Figure 5b) (4 μM 18, 4 μM 2OG): 4866.18 and 5181.35 and 3610.11
- 2OG concentration / rate, Cornish-Bowden plot (Figure 5b) (4 μM 18, 8 μM 2OG): 5025.13 and 6092.92
- 2OG concentration / rate, Cornish-Bowden plot (Figure 5b) (4 μM 18, 16 μM 2OG): 7045.35 and 7289.29 and 6153.85
- 2OG concentration / rate, Cornish-Bowden plot (Figure 5b) (4 μM 18, 32 μM 2OG): 9395.18 and 8886.42 and 8623.01
- 2OG concentration / rate, Cornish-Bowden plot (Figure 5b) (4 μM 18, 64 μM 2OG): 15241.7 and 14522.4 and 14719.4
- FIH reaction rate at variable 2OG and compound 18 concentrations (Figure 5a) (4.0 μM compound 18, 0 μM 2OG): 0
- FIH reaction rate at variable 2OG and compound 18 concentrations (Figure 5a) (4.0 μM compound 18, 2 μM 2OG): 0.000463 and 0.000406 and 0.000641
- FIH reaction rate at variable 2OG and compound 18 concentrations (Figure 5a) (4.0 μM compound 18, 4 μM 2OG): 0.000822 and 0.000772 and 0.001108
- FIH reaction rate at variable 2OG and compound 18 concentrations (Figure 5a) (4.0 μM compound 18, 8 μM 2OG): 0.001592 and 0.001313 and 0.00107
- FIH reaction rate at variable 2OG and compound 18 concentrations (Figure 5a) (4.0 μM compound 18, 16 μM 2OG): 0.002271 and 0.002195 and 0.0026
- FIH reaction rate at variable 2OG and compound 18 concentrations (Figure 5a) (4.0 μM compound 18, 32 μM 2OG): 0.003406 and 0.003601 and 0.003711
- FIH reaction rate at variable 2OG and compound 18 concentrations (Figure 5a) (4.0 μM compound 18, 64 μM 2OG): 0.004199 and 0.004407 and 0.004348
- Ki (non-linear regression, HIF-1α788–822, 2OG-competitive): ~200 nM
- FIH Kmapp for 2OG (presence of 0.5 μM 18): 2.12 ± 0.20 µM
- FIH vmaxapp for 2OG (presence of 0.5 μM 18): 5.8 ± 0.1 10-3 μM·s-1
- FIH Kmapp for 2OG (presence of 1.0 μM 18): 4.58 ± 0.34 µM
- FIH vmaxapp for 2OG (presence of 1.0 μM 18): 6.2 ± 0.1 10-3 μM·s-1
- FIH Kmapp for 2OG (presence of 2.0 μM 18): 9.62 ± 0.91 µM
- FIH vmaxapp for 2OG (presence of 2.0 μM 18): 5.9 ± 0.2 10-3 μM·s-1
- FIH Kmapp for 2OG (presence of 4.0 μM 18): 25.1 ± 2.5 µM
- FIH vmaxapp for 2OG (presence of 4.0 μM 18): 6.1 ± 0.3 10-3 μM·s-1

SMILES: O=C(O)CCC(=O)C(=O)O [2OG, 2-Oxoglutarate]
- FIH Kmapp for 2OG (absence of 18, HIF-1α788-822): 0.74 ± 0.07 µM
- FIH vmaxapp for 2OG (absence of 18, HIF-1α788-822): 5.9 ± 0.1 10-3 μM·s-1
